Source: patent US7622450B2, “Flavone C-glycoside derivatives and compositions containing the derivatives” (Suntory Holdings Limited, priority 2002, dated 2009)

Key:
DNFB-induced ear edema = assay: Inhibitory effect on mouse ear contact dermatitis (DNFB-induced ear edema); assay type: in vivo, ICR strain mice; conditions: for Dose producing 50% inhibition of ear edema: DNFB-induced ear edema, mice, p.o.; for DNFB-induced edema vs control group: ICR mice, Student's t-test
Method: (§1) ICR strain mice at 7 weeks of age were purchased from CLEA Japan and used for experiments after preconditioning for 1 week. The yellow powder obtained in Example 1 [compound (1)] was suspended in 0.5% sodium carboxymethylcellulose/0.01N hydrochloric acid to prepare sample formulations at three concentrations corresponding to doses of 0.2, 1.0 and 5.0 μg/kg in a dose volume of 10 ml/kg. […] in six mice per group was established in 5 days by subcutaneous injection of 100 μl of a solution of 1% 2,4-dinitrofluorobenzene (DNFB) in ethanol on the back. On day 6, a solution of 1% DNFB in olive oil was applied on the right ear to induce ear contact dermatitis. After 24 hours, both ears were punched out in a diameter of 8 mm and weighed. Compound (1) was continuously orally administered for 7 days from the day before the primary challenge until the day on which edema was induced. A control group was treated with 0.5% sodium carboxymethylcellulose/0.01N hydrochloric acid. The experimental results were expressed as the average percentage of edema on the right in relation to left ears with standard deviation using Student's t-test for evaluating the significance between groups.
as §1, with “(2)]” for “(1)]”, “1.0, 10” for “0.2, 1.0”, “100” for “5.0”, “(2)” for “(1)”
The same procedures as in Experimental examples 1 and 2 were used to compare the inhibitory effects of a corticosteroid and several flavonoids (FIG. 3) on DNFB-induced ear edema formation with those of compound (1) and compound (2). The experimental results were expressed as the dose producing a 50% inhibition of DNFB-induced ear edema.

peritoneal mast cells = assay: Inhibitory effect on histamine release from peritoneal mast cells (Compound 48/80); assay type: cell-based, Wistar strain rats; conditions: Mast cell, rat peritoneal mast cells
Method: Wistar strain rats at 7 weeks of age were purchased from CLEA Japan and used for experiments after preconditioning for 1 week. After Wistar strain rats were decapitated under ether anesthesia, Tyrode solution was intraperitoneally injected. Mast cells were routinely isolated and suspended at […] in Tyrode solution containing 0.1% bovine serum albumin (BSA) to prepare a mast cell suspension. The mast cell suspension was incubated with compound (1) or compound (2) dissolved in 50% methanol at 37° C. for 5 minutes. Then, the suspension was further incubated with Compound 48/80 at 37° C. for 10 minutes and cooled on ice and then centrifuged. Then, the free histamine content in the resulting supernatant was measured on a high-speed liquid chromatograph by the post-column method using ortho-phthalaldehyde (OPA) according to the method of Onda et al. [J. Med. Sci., 27, 93-97(1978)]. The experimental results were expressed as the percentage of histamine release inhibited by the treatment with the samples as compared with the treatment with the solvent alone.

SMILES | Dose producing 50% inhibition of ear edema (DNFB-induced ear edema) [mg/kg p.o.] | also measured
O=c1cc(-c2ccc(O)cc2)oc2cc(O)cc(O)c12 [Apigenin] | 247 | –
O=c1cc(-c2ccc(O)cc2)oc2cc3c(c(O)c12)[C@@H]1O[C@H](CO)[C@@H](O)[C@H](O)[C@@H]1O3 [Compound (1)] | 0.05 | DNFB-induced edema vs control group (DNFB-induced ear edema; 1.0 μg/kg orally for 7 days): significantly inhibited; DNFB-induced edema vs control group (DNFB-induced ear edema; 5.0 μg/kg orally for 7 days): significantly inhibited; inhibition at 5 µg/mL (peritoneal mast cells; concentration 5.0 μg/ml): 62.3%
O=c1cc(-c2ccc(O)cc2)oc2c3c(cc(O)c12)O[C@H]1[C@@H](O)[C@H](O)[C@@H](CO)O[C@@H]31 [Compound (2)] | 0.17 | DNFB-induced edema vs control group (DNFB-induced ear edema; 100 μg/kg orally for 7 days): significantly inhibited; inhibition at 50 µg/mL (peritoneal mast cells; concentration 50.0 μg/ml): 51.2%
C[C@@H]1C[C@H]2[C@@H]3CCC4=CC(=O)C=C[C@]4(C)[C@@]3(F)[C@@H](O)C[C@]2(C)[C@@]1(O)C(=O)CO [Dexamethasone] | 1.5 | –
O=c1c(O)c(-c2ccc(O)c(O)c2)oc2cc(O)cc(O)c12 [Quercetin] | 265 | –
C[C@@H]1O[C@@H](O[C@@H]2[C@@H](O)[C@H](O)[C@@H](CO)O[C@H]2c2c(O)cc(O)c3c(=O)cc(-c4ccc(O)cc4)oc23)[C@H](O)[C@H](O)[C@H]1O [Rhamnosyl vitexin] | 146 | –
C[C@@H]1O[C@@H](OC[C@H]2O[C@@H](Oc3c(-c4ccc(O)c(O)c4)oc4cc(O)cc(O)c4c3=O)[C@H](O)[C@@H](O)[C@@H]2O)[C@H](O)[C@H](O)[C@H]1O [Rutin] | 123 | –
O=c1cc(-c2ccc(O)cc2)oc2c([C@@H]3O[C@H](CO)[C@@H](O)[C@H](O)[C@H]3O)c(O)cc(O)c12 [Vitexin] | 103 | –
